Experimental data: US6248752A, “Azabicyclooctane compositions and methods for enhancing chemotherapy” (priority 1999, dated 2001)
Where two headings read alike, the source gives them in different places.

Legend:
[1] = biological target: T1, MRP (Homo sapiens, UniProt P33527); experiment: Reversal of MRP-mediated MDR: potentiation of vincristine cytotoxicity toward HL-60/ADR cells; assay type: cell-based
T1 construct: Human promyelocytic leukemia HL-60/ADR cells, which express MRP; endogenous in cells; host or cells: HL-60/ADR human promyelocytic leukemia cells

[2] = Intrinsic cytotoxicity of the compounds toward drug-sensitive MCF-7 cells (sulforhodamine B binding assay); conditions: human, Cytotoxicity (% killed at 10 μg/ml)
[3] = test system: MCF-7 human breast carcinoma cells; conditions: mcf-7 cells, 48 h
[4] = in vitro; conditions: human, mcf-7 cells, Cytotoxicity (% killed at 10 μg/ml)
[5] = biological target: Pgp (Homo sapiens, UniProt P08183)
[6] = chemosensitizing score on a scale of 0-5 (best activity=5; equal or superior to verapamil = 4, 4.5 or 5), HL-60/ADR cells, 2 nM vincristine, 48 h

T1 sequence (P33527 whole entry): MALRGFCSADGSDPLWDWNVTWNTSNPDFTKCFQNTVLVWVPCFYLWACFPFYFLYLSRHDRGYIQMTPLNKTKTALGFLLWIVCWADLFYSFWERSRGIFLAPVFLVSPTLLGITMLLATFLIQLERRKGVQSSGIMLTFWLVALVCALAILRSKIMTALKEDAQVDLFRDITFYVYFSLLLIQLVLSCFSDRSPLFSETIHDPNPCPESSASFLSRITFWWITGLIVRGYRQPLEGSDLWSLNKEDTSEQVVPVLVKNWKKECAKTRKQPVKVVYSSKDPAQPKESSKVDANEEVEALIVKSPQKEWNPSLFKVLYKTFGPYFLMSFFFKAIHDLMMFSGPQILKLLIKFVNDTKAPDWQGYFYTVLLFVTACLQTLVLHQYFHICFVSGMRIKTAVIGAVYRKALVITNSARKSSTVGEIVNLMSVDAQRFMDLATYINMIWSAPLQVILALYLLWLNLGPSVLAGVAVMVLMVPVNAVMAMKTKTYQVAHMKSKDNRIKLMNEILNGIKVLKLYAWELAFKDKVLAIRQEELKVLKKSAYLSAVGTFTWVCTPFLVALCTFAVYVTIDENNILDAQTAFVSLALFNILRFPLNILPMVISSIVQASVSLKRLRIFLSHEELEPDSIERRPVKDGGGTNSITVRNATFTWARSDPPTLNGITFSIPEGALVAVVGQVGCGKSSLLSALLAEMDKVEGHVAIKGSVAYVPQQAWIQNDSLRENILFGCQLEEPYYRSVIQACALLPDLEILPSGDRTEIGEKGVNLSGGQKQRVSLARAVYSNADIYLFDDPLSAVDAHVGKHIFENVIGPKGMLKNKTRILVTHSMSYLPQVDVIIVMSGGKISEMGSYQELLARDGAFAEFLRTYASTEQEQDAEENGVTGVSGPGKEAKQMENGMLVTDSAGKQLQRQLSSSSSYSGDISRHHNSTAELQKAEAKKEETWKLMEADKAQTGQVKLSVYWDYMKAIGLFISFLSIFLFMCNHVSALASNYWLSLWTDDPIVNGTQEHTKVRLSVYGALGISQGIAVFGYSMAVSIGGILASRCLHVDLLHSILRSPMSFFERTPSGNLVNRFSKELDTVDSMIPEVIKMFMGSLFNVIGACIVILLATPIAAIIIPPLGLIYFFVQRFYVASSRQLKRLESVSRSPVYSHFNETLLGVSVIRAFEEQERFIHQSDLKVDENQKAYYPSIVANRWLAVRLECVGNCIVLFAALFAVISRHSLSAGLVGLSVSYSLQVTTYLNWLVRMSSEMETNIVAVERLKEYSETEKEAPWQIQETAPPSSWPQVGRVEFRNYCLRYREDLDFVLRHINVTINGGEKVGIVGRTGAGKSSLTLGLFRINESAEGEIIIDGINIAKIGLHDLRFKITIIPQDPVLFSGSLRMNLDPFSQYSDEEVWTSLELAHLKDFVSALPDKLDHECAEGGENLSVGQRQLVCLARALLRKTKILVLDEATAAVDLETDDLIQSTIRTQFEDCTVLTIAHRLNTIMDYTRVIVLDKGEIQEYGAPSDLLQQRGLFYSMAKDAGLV
Chain of Pgp (P08183 whole entry): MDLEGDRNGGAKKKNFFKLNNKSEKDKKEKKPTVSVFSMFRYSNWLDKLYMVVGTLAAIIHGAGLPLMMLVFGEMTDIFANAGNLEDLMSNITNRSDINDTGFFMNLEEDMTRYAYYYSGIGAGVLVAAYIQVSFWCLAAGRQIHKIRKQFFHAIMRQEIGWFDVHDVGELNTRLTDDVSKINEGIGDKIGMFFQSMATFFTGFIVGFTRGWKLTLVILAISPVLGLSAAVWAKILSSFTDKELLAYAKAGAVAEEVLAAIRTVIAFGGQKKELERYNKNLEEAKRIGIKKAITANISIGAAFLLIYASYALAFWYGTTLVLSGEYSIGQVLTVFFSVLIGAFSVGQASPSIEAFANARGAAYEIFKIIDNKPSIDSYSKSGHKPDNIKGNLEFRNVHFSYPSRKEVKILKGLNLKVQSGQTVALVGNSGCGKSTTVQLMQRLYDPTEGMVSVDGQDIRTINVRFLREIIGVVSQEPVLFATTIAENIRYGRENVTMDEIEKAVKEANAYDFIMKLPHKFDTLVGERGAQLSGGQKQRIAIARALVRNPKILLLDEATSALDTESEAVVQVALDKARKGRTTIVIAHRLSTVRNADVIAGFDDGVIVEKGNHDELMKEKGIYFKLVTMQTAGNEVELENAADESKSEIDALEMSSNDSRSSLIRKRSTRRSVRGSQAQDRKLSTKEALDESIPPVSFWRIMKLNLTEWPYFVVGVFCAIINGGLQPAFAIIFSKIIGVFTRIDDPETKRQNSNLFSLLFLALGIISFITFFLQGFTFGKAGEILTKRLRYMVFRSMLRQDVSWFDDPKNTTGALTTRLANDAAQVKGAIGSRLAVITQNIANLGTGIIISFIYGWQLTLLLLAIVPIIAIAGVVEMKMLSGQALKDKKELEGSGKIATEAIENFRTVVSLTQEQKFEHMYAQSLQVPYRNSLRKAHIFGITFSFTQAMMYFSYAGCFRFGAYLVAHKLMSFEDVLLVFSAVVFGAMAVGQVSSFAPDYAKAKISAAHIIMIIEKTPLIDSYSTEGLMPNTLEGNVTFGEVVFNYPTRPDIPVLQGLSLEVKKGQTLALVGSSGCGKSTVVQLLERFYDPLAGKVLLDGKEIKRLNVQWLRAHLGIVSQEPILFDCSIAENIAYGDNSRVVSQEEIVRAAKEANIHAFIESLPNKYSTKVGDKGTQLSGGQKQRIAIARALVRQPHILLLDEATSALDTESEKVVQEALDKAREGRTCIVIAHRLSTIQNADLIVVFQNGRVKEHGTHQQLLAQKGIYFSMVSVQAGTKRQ

**Q.** Which results are given for COc1cc(C2(O)CC3CCC2N(Cc2ccccc2)C3)cc(OC)c1OC (stereo not drawn) [Compound I-2, 2-benzyl-cis-6-hydroxy-trans-6-(3,4,5-trimethoxyphenyl)-2-azabicyclco[2.2.2]octane]?
**A.** MRP antagonism [1, 6]: 3; cytotoxicity at 48 h [2]: 39%

**Q.** With COc1cc(C2CC3CCC2N(Cc2ccccc2)C3)cc(OC)c1OC (stereo not shown) [Compound I-3, 2-benzyl-6-(3,4,5-trimethoxyphenyl)-2-azabicyclo[2.2.2]octane] as the molecule, how does the MRP antagonism [1, 6] read?
**A.** 4

**Q.** And the cytotoxicity at 48 h [2]?
**A.** 22%

**Q.** Which MRP antagonism [1, 6] does the source give for COc1cc(C2CC3CCC2NC3)cc(OC)c1OC (stereo not drawn) [Compound I-4, cis-6-(3,4,5-trimethoxyphenyl)-2-azabicyclo[2.2.2]octane] here?
**A.** 2

**Q.** And the “Cytotoxicity (% killed at 10 μg/ml)” value [3]?
**A.** 12%

**Q.** What does the source list for COc1cc(C2CC3CCC2NC3)cc(OC)c1OC (stereo not drawn) [Compound I-5, trans-6-(3,4,5-trimethoxyphenyl)-2-azabicyclo[2.2.2]octane]?
**A.** MRP antagonism [1, 6]: 4; Cytotoxicity (% killed at 10 μg/ml) [3]: 0%

**Q.** With Oc1ccc(C2(O)CC3CCC2N(Cc2ccccc2)C3)cc1O (stereo not drawn) [Compound I-6, 2-benzyl-cis-6-hydroxy-trans-6-(3,4-dihydroxyphenyl)-2-azabicyclo[2.2. 2]octane] as the molecule, how does the MRP antagonism [1, 6] read?
**A.** 1.5

**Q.** What about the cytotoxicity at 48 h [2] of the same molecule?
**A.** 21%

**Q.** For CCN1CC2CCC1C(Nc1ccccc1)C2 (stereo not shown) [Compound I-7, 2-ethyl-6-anilino-2-azabicyclo[2.2.2]octane], which MRP antagonism [1, 6] is on record?
**A.** 1

**Q.** What about the cytotoxicity at 48 h [4] of the same molecule?
**A.** 26%

**Q.** For OC1CC2CCC1N(Cc1ccccc1)C2 (stereo not drawn) [Compound I-9, 2-benzyl-6-trans-hydroxy-2-azabicyclo[2.2.2]octane], which MRP antagonism [1, 6] is on record?
**A.** 0

**Q.** What about the cytotoxicity at 48 h [4] of the same molecule?
**A.** 0%

**Q.** For OC1(c2ccc(OCc3ccccc3)c(OCc3ccccc3)c2)CC2CCC1N(Cc1ccccc1)C2 (stereo not shown) [Compound I-10, 2-benzyl-6-(3,4-dibenzyloxyphenyl)-6-hydroxy-2-azabicyclo[2.2.2]octane], which MRP antagonism [1, 6] is on record?
**A.** 0

**Q.** And the cytotoxicity at 48 h [2]?
**A.** 0%

**Q.** For CN1CC2CCC1C(=O)C2=C(c1ccccc1)c1ccccc1 (stereo not shown) [Compound I-11, 5-diphenylmethylidene-2-methyl-2-azabicyclo[2.2.2]octan-6-one], which cytotoxicity at 48 h [2] is on record?
**A.** 8%

**Q.** For NNC(=O)OC1CC2CCC(C1)N2C(=O)Oc1ccc(Cl)cc1 (stereo not shown) [II-1, 3-hydrazinocarbonyloxy-8-(4-chlorophenoxycarbonyl)-8-azabicyclo[3.2. 1]octane], which MRP antagonism [1] is on record?
**A.** 2

**Q.** What about the Pgp antagonism [5] of the same molecule?
**A.** 3
